For the experiment, the system named is HCV 1b_Huh-Luc/Neo-ET cell line persistently expressing a bicistronic genotype 1b replicon in Huh 7 cells. The experiment in a line: HCV replicon assay (luciferase readout). Type of experiment: cell-based. Conditions: Hepatitis C virus, Huh-7, 72 h, read-out: Inhibition of HCV genotype 1b. As to the method: Biological activity of the compounds of the invention was determined using an HCV replicon assay. The HCV 1b_Huh-Luc/Neo-ET cell line persistently expressing a bicistronic genotype 1b replicon in Huh 7 cells was obtained from ReBLikon GMBH. This cell line was used to test compound inhibition using luciferase enzyme activity readout as a measurement of compound inhibition of replicon levels.
On Day 1 (the day after plating), each compound is added in triplicate to the cells. Plates incubated for 72 h prior to running the luciferase assay. Enzyme activity was measured using a Bright-Glo Kit (cat. number E2620) manufactured by Promega Corporation. The following equation was used to generate a percent control value for each compound. % Control=(Average Compound Value/Average Control)*100
The EC50 value was determined using GraphPad Prism and the following equation: Y=Bottom+(Top−Bottom)/(1+10^((Log IC50−X)*HillSlope))
EC50 values of compounds are determined several times in the replicon assay.
Example compounds of the disclosed invention are illustrated in Tables 1-14 attached as appendices. The tables show inhibitory activity of many of the example compounds with respect to HCV 1b. […] The tables further provide mass spectrometry results for the synthesized example compounds.

pEC50: −log10 of the molar value. A value given as a limit tells only on which side of the number the result lay.

Take `CC(C)[C@H](NC(=O)N1CC[C@@H](O)C1)C(=O)N1CCC[C@H]1c1ncc(-c2ccc(C#Cc3ccc(-c4cnc([C@@H]5CCCN5C(=O)[C@@H](NC(=O)N5CC[C@@H](O)C5)C(C)C)[nH]4)cc3)cc2)[nH]1` [Compound 968]: the pEC50 is 6.00 to 8.00.

For the molecule `CS(=O)(=O)N[C@@H](C(=O)N1CCC[C@H]1c1ncc(-c2ccc(C#Cc3ccc(-c4cnc([C@@H]5CCCN5C(=O)[C@@H](c5ccccc5)N5CCOCC5)[nH]4)cc3)cc2)[nH]1)c1ccccc1` [Compound 232], the pEC50 is more than 9.00.

For the molecule `COC(=O)N[C@H](C(=O)N1CCC[C@H]1c1ncc(-c2ccc(C#Cc3ccc4nc([C@@H]5CCCN5C(=O)[C@@H](NC(=O)OC)[C@H](C)O)[nH]c4c3)cc2)[nH]1)[C@H](C)O` [Compound 1031], the pEC50 is more than 9.00.

Regarding `COC(=O)N[C@H](C(=O)N1CCC[C@H]1c1ncc(-c2ccc(C#Cc3ccc(-c4cnc([C@@H]5CCCN5C(=O)[C@H](C(C)C)N(C)C)[nH]4)cc3)cc2)[nH]1)C(C)C` [Compound 953], the pEC50 is 8.00 to 9.00.

Consider `O=C(N[C@@H](C(=O)N1CCC[C@H]1c1nc(-c2ccc3cc(C#Cc4cnc([C@@H]5CCCN5C(=O)[C@H](NC(=O)N5CC[C@@H](O)C5)c5ccccc5)[nH]4)ccc3c2)c[nH]1)c1ccccc1)N1CC[C@@H](O)C1` [Compound 807], for which the pEC50 was 8.00 to 9.00.

With `CC(C)(C)OC(=O)N[C@@H](C(=O)N1CCC[C@H]1c1ncc(C#Cc2ccc(-c3ccc(-c4cnc([C@@H]5CCCN5C(=O)[C@H](NC(=O)OC(C)(C)C)c5ccccc5)[nH]4)cc3)cc2)[nH]1)c1ccccc1` [Compound 757], the pEC50 was more than 9.00.

`COC(=O)N[C@@H](C(=O)N1CCC[C@H]1c1ncc(-c2ccc(C#Cc3ccc(-c4cnc([C@@H]5CCCN5C(=O)[C@H](NC(=O)N5CC[C@@H](O)C5)c5ccccc5)[nH]4)cc3)cc2)[nH]1)c1ccccc1` [Compound 268]: the pEC50 is more than 9.00.

With `CC(=O)N[C@@H](C(=O)N1CCC[C@H]1c1ncc(C#Cc2ccc(C#Cc3cnc([C@@H]4CCCN4C(=O)[C@H](NC(C)=O)c4ccccc4)[nH]3)cc2)[nH]1)c1ccccc1` [Compound 306], the pEC50 is more than 9.00.

Turning to `CCN(CC)[C@@H](C(=O)N1CCC[C@H]1c1ncc(-c2ccc(C#Cc3ccc(-c4cnc([C@@H]5CCCN5C(=O)[C@@H](c5ccccc5)N(CC)CC)[nH]4)cc3)cc2)[nH]1)c1ccccc1` [Compound 173], the pEC50 is more than 9.00.

As to `COC(=O)N[C@H](C(=O)N1CC[C@H](O)[C@H]1c1ncc(-c2ccc(C#Cc3ccc4nc([C@@H]5CCCN5C(=O)[C@@H](NC(=O)OC)C(C)C)[nH]c4c3)cc2)[nH]1)C(C)C` [Compound 1068], the pEC50 is more than 9.00.

Regarding `COC(=O)N[C@H](C(=O)N1CCC[C@H]1c1ncc(-c2ccc(C#Cc3ccc4nc([C@@H]5CCCN5C(=O)[C@@H](NC(=O)OC)C5CC5)[nH]c4c3)cc2)[nH]1)C1CC1` [Compound 1029], the pEC50 is more than 9.00.

Consider `COC(=O)N[C@H](C(=O)N[C@@H](C)c1ncc(-c2ccc(C#Cc3ccc(-c4cnc([C@H](C)NC(=O)[C@@H](NC(=O)OC)[C@@H](C)OC)[nH]4)cc3)cc2)[nH]1)[C@@H](C)OC` [Compound 952], for which the pEC50 was 8.00 to 9.00.

For the molecule `COC(=O)N[C@H](C(=O)N1CCC[C@H]1c1nc2ccc(C#Cc3ccc(-c4cnc([C@@H]5CCCN5)[nH]4)cc3)cc2[nH]1)C(C)C` [Compound 1055], the pEC50 was 6.00 to 8.00.

As for `CN1CCN(C(=O)N[C@@H](C(=O)N2CCC[C@H]2c2ncc(C#Cc3ccc(-c4cnc([C@@H]5CCCN5C(=O)[C@H](NC(=O)N5CCN(C)CC5)c5ccccc5)[nH]4)cc3)[nH]2)c2ccccc2)CC1` [Compound 118], the pEC50 is 6.00 to 8.00.

With `COC(=O)N[C@@H](C(=O)N1CCC[C@H]1c1ncc(-c2ccc(C#Cc3ccc(-c4cnc([C@@H]5CCCN5C(=O)[C@H](NC(=O)[C@H]5CCCN5C)c5ccccc5)[nH]4)cc3)cc2)[nH]1)c1ccccc1` [Compound 204], the pEC50 was more than 9.00.

Consider `COC(=O)N[C@H](C(=O)N1CCC[C@H]1c1ncc(-c2ccc(C#Cc3ccc(-c4cnc([C@@H]5CCCN5C(=O)[C@@H](c5ccccc5)N(C)C)[nH]4)cc3)cc2)[nH]1)C(C)C` [Compound 955], for which the pEC50 was more than 9.00.

As for `CCN(CC)[C@@H](C(=O)N1CCC[C@H]1c1ncc(-c2ccc(-c3ccc(C#Cc4cnc([C@@H]5CCCN5C(=O)[C@H](NC(=O)OC)c5ccccc5)[nH]4)cc3)cc2)[nH]1)c1ccccc1` [Compound 751], the pEC50 was more than 9.00.

Turning to `COC(=O)N[C@H](C(=O)N1CCC[C@H]1c1ncc(-c2ccc(C#Cc3ccc(-c4cnc([C@@H]5CCCN5C(=O)[C@@H](Nc5ncccn5)C(C)C)[nH]4)cc3)cc2)[nH]1)C(C)C` [Compound 1003], the pEC50 is more than 9.00.

As to `COC(=O)N[C@H](C(=O)N1CCC[C@H]1c1nc(-c2ccc3cc(C#Cc4cnc([C@@H]5CCCN5C(=O)[C@@H](NC(=O)OC)C5CCOCC5)[nH]4)ccc3c2)c[nH]1)C(C)C` [Compound 1079], the pEC50 was more than 9.00.

`COC(=O)N[C@@H](C(=O)N1CCC[C@H]1c1ncc(-c2ccc(C#Cc3ccc(-c4cnc([C@@H]5CCCN5C(=O)[C@H](NC(=O)C5CC5)c5ccccc5)[nH]4)cc3)cc2)[nH]1)c1ccccc1` [Compound 218]: the pEC50 is more than 9.00.

Regarding `COC(=O)N[C@H](C(=O)N[C@H](c1ncc(-c2ccc(C#Cc3ccc(-c4cnc([C@@H]5CCCN5C(=O)[C@@H](NC(=O)OC)C(C)C)[nH]4)cc3)cc2)[nH]1)C(C)C)C(C)C` [Compound 276], the pEC50 was 8.00 to 9.00.

For `COC(=O)N[C@H](C(=O)N1CCC[C@H]1c1ncc(-c2ccc(C#Cc3ccc4nc([C@@H]5CCCN5C(=O)[C@@H](C(C)C)N(C)C)[nH]c4c3)cc2)[nH]1)C(C)C` [Compound 1020], the pEC50 was more than 9.00.

As to `CC(C)[C@@H](NC(=O)OC(C)(C)C)C(=O)N1CCC[C@H]1c1ncc(-c2ccc(C#Cc3ccc(-c4cnc([C@@H]5CCCN5C(=O)[C@H](NC(=O)OC(C)(C)C)C(C)C)[nH]4)cc3)cc2)[nH]1` [Compound 152], the pEC50 was 6.00 to 8.00.

For `COC(=O)N[C@H](C(=O)N1CCC[C@H]1c1ncc(-c2ccc(C#Cc3ccc(-c4cnc([C@@H]5CCCN5C(=O)[C@@H](NC5CCOCC5)C(C)C)[nH]4)cc3)cc2)[nH]1)C(C)C` [Compound 1001], the pEC50 is 8.00 to 9.00.

Regarding `CC[C@H](NC(=O)OC)C(=O)N1CCC[C@H]1c1ncc(-c2ccc(C#Cc3ccc(-c4cnc([C@@H]5CCCN5C(=O)[C@H](CC)NC(=O)OC)[nH]4)cc3)cc2)[nH]1` [Compound 960], the pEC50 was more than 9.00.

With `C[C@H](NC(=O)[C@@H]1CCCN1C(=O)[C@H](NC(=O)C1CC1)c1ccccc1)c1ccc(C#Cc2cnc([C@@H]3CCCN3C(=O)[C@H](NC(=O)C3CC3)c3ccccc3)[nH]2)cc1` [Compound 132], the pEC50 is 6.00 to 8.00.

For `COC(=O)N[C@H](C(=O)N1CCC[C@H]1c1nc2ccc(C#Cc3ccc(-c4cnc([C@@H]5CCCN5C(=O)[C@H](NC(=O)OC)c5ccccc5)[nH]4)cc3)cc2[nH]1)C(C)C` [Compound 1022], the pEC50 is more than 9.00.

On to `COC(=O)N[C@H](C(=O)N1CCC[C@H]1c1ncc(-c2ccc(C#Cc3ccc(-c4cnc([C@H](C)NC(=O)[C@@H](NC(=O)OC)[C@@H](C)OC)[nH]4)cc3)cc2)[nH]1)C(C)OC` (stereo partly shown) [Compound 289], for which the pEC50 is more than 9.00.

On to `COC(=O)N[C@H](C(=O)N[C@@H](C)c1ncc(-c2ccc(C#Cc3ccc(-c4cnc([C@H](C)NC(=O)[C@@H](NC(=O)OC)C(C)C)[nH]4)cc3)cc2)[nH]1)C(C)C` [Compound 951], for which the pEC50 was more than 9.00.

With `O=C(N[C@@H](C(=O)N1CCC[C@H]1c1nc(-c2ccc3cc(C#Cc4cnc([C@@H]5CCCN5C(=O)[C@H](NC(=O)N5CCOCC5)c5ccccc5)[nH]4)ccc3c2)c[nH]1)c1ccccc1)N1CCOCC1` [Compound 808], the pEC50 is more than 9.00.

As for `CC(C)[C@H](NC(=O)N1CC[C@H](O)C1)C(=O)N1CCC[C@H]1c1ncc(-c2ccc(C#Cc3ccc(-c4cnc([C@@H]5CCCN5C(=O)[C@@H](NC(=O)N5CC[C@H](O)C5)C(C)C)[nH]4)cc3)cc2)[nH]1` [Compound 988], the pEC50 is 6.00 to 8.00.

Turning to `CN(C)[C@@H](C(=O)N1CCC[C@H]1c1ncc(C#Cc2ccc(C#Cc3cnc([C@@H]4CCCN4C(=O)[C@@H](c4ccccc4)N(C)C)[nH]3)cc2)[nH]1)c1ccccc1` [Compound 305], the pEC50 was more than 9.00.

Take `CC(C)[C@H](NC(=O)N1CCC(O)CC1)C(=O)N1CCC[C@H]1c1ncc(-c2ccc(C#Cc3ccc(-c4cnc([C@@H]5CCCN5C(=O)[C@@H](NC(=O)N5CCC(O)CC5)C(C)C)[nH]4)cc3)cc2)[nH]1` [Compound 286]: the pEC50 was less than 6.00.

Turning to `COC(=O)N[C@@H](C(=O)N1CCC[C@H]1c1ncc(-c2ccc(C#Cc3ccc(-c4cnc([C@@H]5CCCN5C(=O)[C@H](NC(=O)N5CCC[C@@H]5C)c5ccccc5)[nH]4)cc3)cc2)[nH]1)c1ccccc1` [Compound 261], the pEC50 was more than 9.00.

With `CC(C)[C@@H](NC(=O)C1CC1)C(=O)N1CCC[C@H]1C(=O)NCc1ccc(C#Cc2cnc([C@@H]3CCCN3C(=O)[C@H](NC(=O)C3CC3)C(C)C)[nH]2)cc1` [Compound 122], the pEC50 was 8.00 to 9.00.

Turning to `COC(=O)N[C@@H](CC(=O)O)C(=O)N1CCC[C@H]1c1ncc(-c2ccc(C#Cc3ccc4nc([C@@H]5CCCN5C(=O)[C@H](CC(=O)O)NC(=O)OC)[nH]c4c3)cc2)[nH]1` [Compound 1061], the pEC50 is 6.00 to 8.00.

For `COC(=O)N[C@H](C(=O)N1CCC[C@H]1c1ncc(-c2ccc(C#Cc3ccc4nc([C@@H]5CCCN5C(=O)[C@@H](NC(=O)OC)C(C)C)[nH]c4c3)nc2)[nH]1)C(C)C` [Compound 1033], the pEC50 is more than 9.00.

Source of the values: patent US8865756B2, “Inhibitors of HCV NS5A” (Presidio Pharmaceuticals, Inc., priority 2008, dated 2014).
